Experimental data: US20200172491A1, “SUBSTITUTED 5-(HET-)ARYLPYRAZOLAMIDES AND SALTS THEREOF AND THEIR USE AS HERBICIDAL ACTIVE SUBSTANCES” (Bayer CropScience Aktiengesellschaft, priority 2017, published 2020)

What was measured:
Assay type in all cases: in vivo
Stellaria media [1] = assay: Post-emergence herbicidal action; conditions: 320 g/ha, rated after about 3 weeks, 100% = plants have died, 0% = like control plants
Protocol: (§1) Seeds of monocotyledonous and dicotyledonous weeds and crop plants were placed in sandy loam in plastic or wood-fiber pots, covered with soil and cultivated in a greenhouse under controlled growth conditions. 2 to 3 weeks after sowing, the test plants were treated at the one-leaf stage. The compounds of the invention, formulated in the form of wettable powders (WP) or as emulsion concentrates (EC), were then sprayed onto the green parts of the plants as aqueous suspension or emulsion with addition of 0.5% additive at a water application rate of 600 l/ha (converted). After the test plants had been kept in the greenhouse under optimum growth conditions for about 3 weeks, the activity of the preparations was rated visually in comparison to untreated controls. For example, 100% activity=the plants have died, 0% activity=like control plants. Tables B1 to B6 below show the effects of selected compounds of the general formula (I) according to Table A1 at an application rate of 320 g/ha on various harmful plants, which were obtained by the aforementioned experimental procedure.

Viola tricolor [2] = assay: Post-emergence herbicidal action; conditions: 320 g/ha, rated after about 3 weeks, 100% = plants have died, 0% = like control plants
Protocol: as §1

Veronica persica [3] = assay: Post-emergence herbicidal action; conditions: 320 g/ha, rated after about 3 weeks, 100% = plants have died, 0% = like control plants
Protocol: as §1

Amaranthus retroflexus [4] = assay: Post-emergence herbicidal action; conditions: 320 g/ha, rated after about 3 weeks, 100% = plants have died, 0% = like control plants
Protocol: as §1

Stellaria media [5] = assay: Pre-emergence herbicidal action; conditions: 320 g/ha, scored after about 3 weeks, 100% = plants have died, 0% = like control plants
Description: (§2) Seeds of monocotyledonous and dicotyledonous weed plants and crop plants were placed in plastic or wood-fiber pots and covered with soil. The compounds of the invention, formulated in the form of wettable powders (WP) or as emulsion concentrates (EC), were then applied to the surface of the covering soil as aqueous suspension or emulsion with addition of 0.5% additive at a water application rate equivalent to 600 l/ha. After the treatment, the pots were placed in a greenhouse and kept under good growth conditions for the test plants. After about 3 weeks, the effect of the preparations is scored visually in comparison with untreated controls as percentages. For example, 100% activity=the plants have died, 0% activity=like control plants. Tables B7 to B11 below show the effects of selected compounds of the general formula (I) according to Table A1 at an application rate of 320 g/ha on various harmful plants, which were obtained by the aforementioned experimental procedure.

Matricaria inodora [6] = assay: Pre-emergence herbicidal action; conditions: 320 g/ha, scored after about 3 weeks, 100% = plants have died, 0% = like control plants
Description: as §2

Viola tricolor [7] = assay: Pre-emergence herbicidal action; conditions: 320 g/ha, scored after about 3 weeks, 100% = plants have died, 0% = like control plants
Description: as §2

Amaranthus retroflexus [8] = assay: Pre-emergence herbicidal action; conditions: 320 g/ha, scored after about 3 weeks, 100% = plants have died, 0% = like control plants
Description: as §2

Ipomoea purpurea = assay: Post-emergence herbicidal action; conditions: 320 g/ha, rated after about 3 weeks, 100% = plants have died, 0% = like control plants
Protocol: as §1

Matricaria inodora [9] = assay: Post-emergence herbicidal action; conditions: 320 g/ha, rated after about 3 weeks, 100% = plants have died, 0% = like control plants
Protocol: as §1

Veronica persica [10] = assay: Pre-emergence herbicidal action; conditions: 320 g/ha, scored after about 3 weeks, 100% = plants have died, 0% = like control plants
Description: as §2

Row | SMILES | herbicidal activity on Stellaria media (visual rating vs untreated controls) (Stellaria media [1]) [%] | herbicidal activity on Viola tricolor (visual rating vs untreated controls) (Viola tricolor [2]) [%] | herbicidal activity on Veronica persica (visual rating vs untreated controls) (Veronica persica [3]) [%] | herbicidal activity on Amaranthus retroflexus (visual rating vs untreated controls) (Amaranthus retroflexus [4]) [%] | herbicidal activity on Stellaria media (visual rating vs untreated controls) (Stellaria media [5]) [%] | herbicidal activity on Matricaria inodora (visual rating vs untreated controls) (Matricaria inodora [6]) [%] | herbicidal activity on Viola tricolor (visual rating vs untreated controls) (Viola tricolor [7]) [%] | herbicidal activity on Amaranthus retroflexus (visual rating vs untreated controls) (Amaranthus retroflexus [8]) [%] | herbicidal activity on Ipomoea purpurea (visual rating vs untreated controls) (Ipomoea purpurea) [%] | herbicidal activity on Matricaria inodora (visual rating vs untreated controls) (Matricaria inodora [9]) [%] | herbicidal activity on Veronica persica (visual rating vs untreated controls) (Veronica persica [10]) [%]
1 | Cc1nn(C)c(-c2ccc(F)cc2Cl)c1C(=O)Nc1ccccc1Cl [I-029] | 100 | 100 | 100 | 100 | 100 | 100 |  |  |  |  | 
2 | Cc1nn(C)c(-c2ccc(F)cc2Cl)c1C(=O)Nc1cccc2c1C(C)OC2(C)C (centres unmarked) [I-019] | 80 | 100 | 100 | 100 | 100 | 100 | 100 | 100 |  |  | 
3 | Cc1nn(C)c(-c2cc(F)ccc2Cl)c1C(=O)Nc1cccc(Cl)c1 [I-004] | 100 | 100 | 100 | 100 | 80 | 90 | 80 | 100 |  |  | 
4 | Cc1nn(C)c(-c2ccc(F)cc2Cl)c1C(=O)Nc1cccc(Cl)c1 [I-001] | 100 | 100 |  | 100 | 100 | 100 |  | 100 | 100 | 90 | 100
5 | Cc1cccc(NC(=O)c2c(C)nn(C)c2-c2ccc(F)cc2Cl)c1C [I-030] | 100 | 100 |  | 100 | 100 | 100 |  | 100 | 100 | 90 | 100
6 | Cc1cccc(Cl)c1NC(=O)c1c(C)nn(C)c1-c1ccc(F)cc1Cl [I-028] | 100 | 100 |  | 100 | 100 | 100 |  | 100 | 100 | 100 | 100
7 | Cc1nn(C)c(-c2ccc(F)cc2Cl)c1C(=O)Nc1cc(F)ccc1F [I-008] | 100 | 100 | 80 | 100 | 100 | 90 | 100 | 100 |  |  | 
8 | Cc1cccc(NC(=O)c2c(C)nn(C)c2-c2ccc(F)cc2Cl)c1 [I-022] | 100 | 100 | 100 | 100 | 100 | 100 |  | 100 |  |  | 100
9 | Cc1nn(C)c(-c2ccc(F)cc2Cl)c1C(=O)Nc1c(Cl)cccc1Cl [I-013] | 100 | 100 |  | 100 | 100 | 100 |  | 100 | 100 | 100 | 100
